# Measurements as given in patent publication US20200237871A1, “METHODS FOR MITIGATING LIVER INJURY AND PROMOTING LIVER HYPERTROPHY, REGENERATION AND CELL ENGRAFTMENT IN CONJUNCTION WITH RADIATION AND/OR RADIOMIMETIC TREATMENTS” (Janssen Pharmaceutica NV, priority 2019, published 2020).
# Experiments:
# Type in all cases: in vivo, mouse
# cirrhotic mice = assay: Lobe weight ratio / hypertrophy of non-irradiated lobe in cirrhotic mice after HIR (Example 5)
# Description: Male C57BL/6 DPPIV knockout male mice (10-14 weeks) were injected intraperitoneally with carbon tetrachloride (CCl4) twice a week for a minimum of 12 weeks until a maximum of when 5 out of 30 mice perish from the CCl4 injection. Immediately after, the animals were randomly distributed into the experimental groups.
# Image-guided external beam irradiation was performed using a small animal radiation research platform (SARRP, Xstrahl Inc., Suwanee, Ga.). Mice were given gastrografin contrast through gavage to improve visualization of the gastrointestinal (GI) tract. […]
# The methods were identical to Experiment 4 as described above with the exception that the CCl4 dose was increased to 20% in olive oil over 12 weeks. To evaluate the effect of RWJ-800088+Liver Sinusoidal Endothelial Cells (LSEC), RWJ-800088+Plerixafor (a selective inhibitor of CXCR4 administered pre- and post-irradiation) on radiation induced liver disease as measured by SPECT-CT in cirrhotic mice after single hepatic irradiation (HIR) at 50 Gy. […]
# The dosing solution of RWJ-800088 was prepared as described in Experiment 4. […] The number of viral particles and infectious units' ratio was determined by infecting 293 cells at various dilutions, followed by immunocytochemical staining for adenoviral hexons. The infectious titer was calculated from the number of plaques formed per 1,000 viral particles. […]
# Hemophilia A mice [1] = assay: Drabkin's tail bleeding assay (Example 6)
# From the text: (§1) 8-16-week-old male C57/BL6 mice, 8-16-week-old female and male B6129SF2/J mice (donor for isolating LSECs) and 8-16-week-old female and male Hemophilia mice (F^8tm1Kaz) mice were used in this study. Mice were housed in groups of up to 5 in micro-isolator cages on stainless steel racks (Allentown, Inc., Allentown, N.J.) with a total floor space of 500 cm^2. The cages utilized an external water bottle and a dual feeder rack (Fisher Scientific, Hampton, N.H.). These cages were stored in the storage rack which provided temperature, humidity, and ventilation control to each individual cage (Allentown, Inc.). Bed-o'Cobs ⅛″ (Fisher Scientific) were used as bedding material in each cage.
# (§2) The methods were identical to Experiment 5 as described above; including the preparation of test articles (solutions of RWJ-800088 and AdHGF), isolation and transplant of LSECs, and Hepatic irradiation.
# The livers of mice were irradiated at 50 Gy by using an X-ray irradiator (SARRP). At 24 hours post-irradiation, the LSECs (1×10^6 cells/mouse) were injected to the mouse through tail vein. […]
# A tail bleeding test was performed in which the extent of bleeding and time to clotting over the course of 30 minutes was evaluated. FVIII protein levels were evaluated by Western blot and mRNA profiling in the blood and liver to evaluate the extent to which there was engraftment of functioning LSECs that produce FVIII. […]
# Hemophilia A mice [2] = assay: Survival after tail bleed challenge (Example 6); conditions: HIR+LSECs+drug, control Hemophilia A mice 100% died within 5 days
# From the text: as §1, §2
# The livers of mice were irradiated at 50 Gy by using an X-ray irradiator (SARRP). At 24 hours post-irradiation, the LSECs (1×10^6 cells/mouse) were injected to the mouse through tail vein. An incision was made in the tail from each mouse at day 60 after hepatic irradiation (HIR) and subjected to the bleeding test.
# RWJ-800088 (300 μg/kg) was administrated subcutaneously at 10 min after LSEC transplantation. AdHGF at 1×10^9 PFU/mouse was administrated intraperitoneally at 24 hours after LSEC transplantation. […]
substance,measurement,setting,value
methoxypolyethyleneglycol20000-propionyl-L-Isoleucyl-L-Glutamyl-Glycyl-L-Prolyl-L-Threonyl-L-Leucyl-L-Arginyl-L-Glutaminyl-L-2-Naphthylalanyl-L-Leucyl-L-Alanyl-L-Alanyl-L-Arginyl-Sarcosyl-Ne-(methoxypolyethyleneglycol20000-propionyl-L-Isoleucyl-L-Glutamyl-Glycyl-L-Prolyl-L-Threonyl-L-Leucyl-L-Arginyl-L-Glutaminyl-L-2-Naphthyl alanyl-L-Leucyl-L-Alanyl-L-Alanyl-L-Arginyl-Sarcosyl-)-Lysinamide [RWJ-800088],Average Ratio of Right Lobe to Left Lobe Weight,"cirrhotic mice; HIR + LSEC transplant (48 hours after HIR) + drug, 4 months post-HIR",1.35
same,hypertrophy of the non-irradiated lobe,"cirrhotic mice; cirrhotic mice, 50 Gy HIR, RWJ-800088 with LSEC transplants",increase in hypertrophy
same,haemoglobin loss (haemoglobin concentration in the collection tube) compared to FVIII deficient model,Hemophilia A mice [1]; HIR 50 Gy + LSECs + drug,significant decrease
same,bleeding and clotting time in functional bleeding assay,Hemophilia A mice [1]; HIR + LSEC transplantation + RWJ-800088,reduced bleeding and clotting time similar to non-Hemophilia A controls
same,survival 30 days post tail bleed challenge,Hemophilia A mice [2],100%
